Results reported in patent US20220306585A1, “PYRAZOLE DERIVATIVES FOR CONTROLLING ARTHROPODS” (Bayer Animal Health GmbH, priority 2019, published 2022).
≈ marks a conversion by molar mass, not a printed value. Blank lines part the entries; values can stand above or below the compound they belong to.

Legend:
[1] = Measurement of stability of prodrugs in buffer at pH 7.4; type: physicochemical; conditions: PBS buffer pH 7.4, 37° C., HPLC peak area, read-out: % Recovery after 24 h (stability at pH 7.4)
Procedure: Preparation of the PBS buffer solution pH 7.4: 90 g sodium chloride, 13.61 g potassium dihydrogen phosphate, 83.35 g 1M aqueous sodium hydroxide were dissolved in water. More water was added up to a total volume of 1 L. This solution was diluted 1:10 with water. Eventually, pH was adjusted to pH 7.4 by the addition of phosphoric acid.
Measurement of Stability of Prodrugs in Buffer at pH 7.4
0.15 mg of the test compound were dissolved in 0.1 mL dimethylsulfoxide and 0.4 mL acetonitrile. For complete dissolution, the HPLC vial with the sample solution was shaken and treated with ultrasound. Then, 1.0 mL of PBS buffer solution pH 7.4 was added and the sample was vortexed. The sample solution was analysed by HPLC (method 8) to determine the amount of the test compound at a particular time over a period of 24 h at 37° C. The peak areas, given as percentage of total area, are used for quantification. In addition, the reaction mixture was analysed by method 9 (HPLC-MS) at the final timepoint.

[2] = Measurement of solubility in buffer at pH 6.5; type: physicochemical; conditions: aqueous buffer, kinetic from dmso stock; PBS buffer pH 6.5, shaken 24 h at rt, LC-MSMS; read-out: Solubility of example compounds at pH 6.5
Procedure: Measurement of Solubility in Buffer at pH 6.5 2-4 mg of the test compound are dissolved in DMSO to reach a concentration of 50 g/L (solution A). To 10 μL of this solution 960 μL PBS buffer pH 6.5 are added (final concentration: […]); the mixture is shaken for 24 h at rt in a 96 well plate. An aliquot is centrifuged at 42000 rpm für 30 min. The supernatant is diluted with acetonitrile/water (8:2) 1:10 and 1:1000 resp. This diluted samples are analyzed by LC-MSMS. Calibration: 10 μL of solution A are diluted with 823 μL DMSO (final concentration: 600 μg/mL), which is further diluted with acetonitrile/water 8:2 by a factor of 100 (provides solution B). The calibration curve is obtained from solution B by further diluting with acetonitrile/water 8:2 with target concentrations of 1.2-12-60-600 ng/mL and injecting these four solutions for MS measurement. PBS-Puffer: 6.18 g sodium chloride and 3.96 g sodium dihydrogen phosphate are dissolved in 1 L aqua dist., the pH is adjusted to 6.5 with IN sodium hydroxide.

[3] = tested on: Dermacentor variabilis nymph; assay: Antiparasitic activity after administration to rats: ticks; type: in vivo; conditions: for In-vivo Efficacy SD2: study day 2; for In-vivo Efficacy SD9: study day 9; for In-vivo Efficacy SD16: study day 16; for In-vivo Efficacy SD23: study day 23; for In-vivo Efficacy SD30: study day 30; for In-vivo Efficacy SD37: study day 37
Procedure: (§1) Measurement of the Antiparasitic Activity after Administration of a Prodrug to Rats Compounds were dissolved in the appropriate volume of glycerol formal (p.a.) just before application to the animals (dose volume was adjusted to 0.03 mL/kg bodyweight). 5 rats per group were either injected intraperitoneally or subcutaneously. Rats were infested with 30 Dermacentor variabilis nymphs on study days −2, 7, 14, 21, 28, 35 and 30 adult Ctenocephalides fleas on study days −1, 8, 15, 22, 29, 36. Parasite counts were performed on study days 2, 9, 16, 23, 30, 37. Percent efficacy was calculated as arithmetic mean parasite numbers as life attached tick numbers and live flea numbers of the respective study group in comparison to parasite counts on a placebo-treated control group. Infestation of groups with less than 75% efficacy on two consecutive counting occasions will terminated for the respective parasite.

[4] = Degradation of prodrugs and release of parent drug in rat plasma; type: in vitro ADME; conditions: male, Hannover-Janvier RjHan, rat plasma (Li-heparin), 37° C., percent area of prodrug at t0
Procedure: Measurement of Release of Parent Drug in Rat Plasma 1 mg of the test compound was dissolved in 0.5 mL acetonitrile/dimethylsulfoxide 9:1. For complete dissolution the HPLC vial was shaken and treated with ultrasound. 20 μL of this solution were added to 1 mL of rat plasma (Li-heparin plasma, Hannover-Janvier rat, RjHan male) with vortexing at a temperature of 37° C. Aliquots (100 μL each) were taken at 0.17, 0.5, 1, 1.5, 2 and 4 hours. Each aliquot was transferred to a vial containing 300 μL of acetonitrile/citric acid buffer pH 3 8:2. These solutions were centrifuged at 5000 rpm for 10 minutes. The supernatant was analysed by HPLC (Method 8) to determine the amount of the test compound. In addition, the reaction mixture was analysed by method 9 (HPLC-MS) at the final timepoint. Both decrease of the prodrug concentration and increase of parent drug concentration were monitored. All data is given as percent area of the prodrug at to.

[5] = tested on: Ctenocephalides felis adult; assay: Antiparasitic activity after administration to rats: fleas; type: in vivo; conditions: for In-vivo Efficacy SD2: study day 2; for In-vivo Efficacy SD9: study day 9; for In-vivo Efficacy SD16: study day 16; for In-vivo Efficacy SD23: study day 23; for In-vivo Efficacy SD30: study day 30; for In-vivo Efficacy SD37: study day 37
Procedure: as §1

[6] = sc, versus parent drug also injected subcutaneously
[7] = 12.22 mg/kg sc, Dermacentor variabilis nymph
[8] = 12.22 mg/kg sc, Ctenocephalides felis adult
[9] = 12.84 mg/kg sc, Dermacentor variabilis nymph
[10] = 12.84 mg/kg sc, Ctenocephalides felis adult
[11] = 12.96 mg/kg sc, Dermacentor variabilis nymph
[12] = 12.96 mg/kg sc, Ctenocephalides felis adult

recovery at 24 h, 0.1 mg/mL [1]: 100%
solubility at 24 h [2]: 179 µg/mL (≈ 257 µM)
recovery at 0.17 h, 39 µg/mL [4]: 73%
recovery at 0.5 h, 39 µg/mL [4]: 42%
recovery at 1 h, 39 µg/mL [4]: 18%
recovery at 1.5 h, 39 µg/mL [4]: 9%
recovery at 2 h, 39 µg/mL [4]: 0%
recovery at 4 h, 39 µg/mL [4]: 0%
SMILES: Cn1nc(C(F)(F)C(F)(F)F)c(C(F)(F)F)c1-n1cc(-c2ccc(Cl)c(C(=O)N(COC(=O)CCCC(=O)O)C3(C#N)CC3)c2)cn1 [Example 4, 5-{[{2-Chloro-5-[2′-methyl-5′-(pentafluoroethyl)-4′-(trifluoromethyl)-2′H-[1,3′-bipyrazol]-4-yl]benzoyl}(1-cyanocyclopropyl)amino]methoxy}-5-oxopentanoic acid]
tick efficacy on rats compared with parent drug [3, 6]: superior
flea efficacy on rats compared with parent drug [5, 6]: superior

recovery at 24 h, 0.1 mg/mL [1]: 100%
solubility at 24 h [2]: 10 µg/mL (≈ 12.6 µM)
recovery at 0.17 h, 39 µg/mL [4]: 89%
recovery at 0.5 h, 39 µg/mL [4]: 77%
recovery at 1 h, 39 µg/mL [4]: 66%
recovery at 1.5 h, 39 µg/mL [4]: 56%
recovery at 2 h, 39 µg/mL [4]: 48%
recovery at 4 h, 39 µg/mL [4]: 29%
SMILES: N#CC1(N(COC(=O)CCCC(=O)O)C(=O)c2cc(-c3cnn(-c4c(Cl)cc(C(F)(C(F)(F)F)C(F)(F)F)cc4OC(F)(F)F)c3)ccc2Cl)CC1 [Example 9, 5-{[(2-Chloro-5-{1-[2-chloro-4-(1,1,1,2,3,3,3-heptafluoropropan-2-yl)-6-(trifluoromethoxy)phenyl]-1H-pyrazol-4-yl}benzoyl)(1-cyanocyclopropyl)amino]methoxy}-5-oxopentanoic acid]
In-vivo Efficacy SD2 [3, 7]: 99%
In-vivo Efficacy SD9 [3, 7]: 100%
In-vivo Efficacy SD16 [3, 7]: 96%
In-vivo Efficacy SD23 [3, 7]: 98%
In-vivo Efficacy SD30 [3, 7]: 85%
In-vivo Efficacy SD37 [3, 7]: 49%
In-vivo Efficacy SD2 [5, 8]: 100%
In-vivo Efficacy SD9 [5, 8]: 97%
In-vivo Efficacy SD16 [5, 8]: 96%
In-vivo Efficacy SD23 [5, 8]: 97%
In-vivo Efficacy SD30 [5, 8]: 91%
In-vivo Efficacy SD37 [5, 8]: 46%

recovery at 24 h, 0.1 mg/mL [1]: 100%
solubility at 24 h [2]: 5 µg/mL (≈ 6 µM)
recovery at 0.17 h, 39 µg/mL [4]: 98%
recovery at 0.5 h, 39 µg/mL [4]: 96%
recovery at 1 h, 39 µg/mL [4]: 92%
recovery at 1.5 h, 39 µg/mL [4]: 89%
recovery at 2 h, 39 µg/mL [4]: 86%
recovery at 4 h, 39 µg/mL [4]: 74%
SMILES: N#CC1(N(COC(=O)[C@H]2CC[C@H](C(=O)O)CC2)C(=O)c2cc(-c3cnn(-c4c(Cl)cc(C(F)(C(F)(F)F)C(F)(F)F)cc4OC(F)(F)F)c3)ccc2Cl)CC1 [Example 11, (trans)-4-({[(2-Chloro-5-{1-[2-chloro-4-(1,1,1,2,3,3,3-heptafluoropropan-2-yl)-6-(trifluoromethoxy)phenyl]-1H-pyrazol-4-yl}benzoyl)(1-cyanocyclopropyl)amino]methoxy}carbonyl)cyclohexane-1-carboxylic acid]
In-vivo Efficacy SD2 [3, 9]: 100%
In-vivo Efficacy SD9 [3, 9]: 100%
In-vivo Efficacy SD16 [3, 9]: 100%
In-vivo Efficacy SD23 [3, 9]: 100%
In-vivo Efficacy SD30 [3, 9]: 96%
In-vivo Efficacy SD37 [3, 9]: 71%
In-vivo Efficacy SD2 [5, 10]: 100%
In-vivo Efficacy SD9 [5, 10]: 100%
In-vivo Efficacy SD16 [5, 10]: 100%
In-vivo Efficacy SD23 [5, 10]: 100%
In-vivo Efficacy SD30 [5, 10]: 97%
In-vivo Efficacy SD37 [5, 10]: 76%

recovery at 24 h, 0.1 mg/mL [1]: 100%
solubility at 24 h [2]: 5 µg/mL (≈ 5.94 µM)
recovery at 0.17 h, 39 µg/mL [4]: 94%
recovery at 0.5 h, 39 µg/mL [4]: 81%
recovery at 1 h, 39 µg/mL [4]: 62%
recovery at 1.5 h, 39 µg/mL [4]: 47%
recovery at 2 h, 39 µg/mL [4]: 36%
recovery at 4 h, 39 µg/mL [4]: 10%
SMILES: N#CC1(N(COC(=O)Cc2ccc(C(=O)O)cc2)C(=O)c2cc(-c3cnn(-c4c(Cl)cc(C(F)(C(F)(F)F)C(F)(F)F)cc4OC(F)(F)F)c3)ccc2Cl)CC1 [Example 15, 4-(2-{[(2-Chloro-5-{1-[2-chloro-4-(1,1,1,2,3,3,3-heptafluoropropan-2-yl)-6-(trifluoromethoxy)phenyl]-1H-pyrazol-4-yl}benzoyl)(1-cyanocyclopropyl)amino]methoxy}-2-oxoethyl)benzoic acid]
In-vivo Efficacy SD2 [3, 11]: 100%
In-vivo Efficacy SD9 [3, 11]: 100%
In-vivo Efficacy SD16 [3, 11]: 100%
In-vivo Efficacy SD23 [3, 11]: 100%
In-vivo Efficacy SD30 [3, 11]: 100%
In-vivo Efficacy SD37 [3, 11]: 100%
In-vivo Efficacy SD42 ([3]; 12.96 mg/kg sc, Dermacentor variabilis nymph, study day 42): 96%
In-vivo Efficacy SD2 [5, 12]: 100%
In-vivo Efficacy SD9 [5, 12]: 100%
In-vivo Efficacy SD16 [5, 12]: 100%
In-vivo Efficacy SD23 [5, 12]: 99%
In-vivo Efficacy SD30 [5, 12]: 96%
In-vivo Efficacy SD37 [5, 12]: 81%
In-vivo Efficacy SD42 ([5]; 12.96 mg/kg sc, Ctenocephalides felis adult, study day 42): 75%
